From patent publication US20230086007A1, “USE OF DENATONIUM BENZOATE AS A SEED TREATMENT FOR CROPS AS BIRD AND/OR INSECT REPELLENT” (KWS SAAT SE & Co. KGaA, priority 2020, published 2023)
“And” between values parts separate entries of the source, which are not always exact repeats. Equal values may be shown once.

What was measured:
[1] = tested on: wireworm of genus Agriotes; experiment: Wireworm field trial in Italy: insect damage (DAMINS); format: in vivo
Source text: Evaluation took place at emergence (E), at V3 stage (=3 leaves unfolded) and at V5 stage (=5 leaves unfolded). The following characteristics have been phenotyped: phytotoxicity (PHYGEN) at stage E, V3 and V5 in % per plot, vigor (VIGOR) at stage E, V3 and V5 in ratings from 1-10 (10 is best), insect damage (DAMINS) at stage V5 in plants per row (left DAMINS column in Table 7) and in % per row (right DAMINS column in Table 7).

[2] = LC-MS-MS determination of Bitrex in hybrid rye seedlings; format: in vivo
Experimental: Additional experiments in hybrid rye show also excellent systemic uptake and distribution of Bitrex. Seeds of a hybrid rye variety have been treated in application A with KintoPlus 150 ml/100 kg seeds and Bitrex 75 g/100 kg seeds and in application B with KintoPlus 150 ml/100 kg seeds and Bitrex 150 g/100 kg seeds. Seeds have been sown in longitudinal plots of 15 qm in four repetitions. 3 weeks after sowing seedlings have been harvested (40 plants per plot) and leaf material and root tissue have been analyzed using Liquid Chromatography with tandem mass spectrometry (LC-MS-MS) as described above.

[3] = LC-MS-MS determination of Bitrex in leaf tissue of oilseed rape seedlings; format: in vivo, Brassica napus
Source text: Further experiments on system uptake of Bitrex have been conducted also on oilseed rape (Brassica napus). Seeds of Brassica napus have been treated with concentration of Bitrex from 0.15 g/unit to 75 g/unit. Seeds have been sown and leaf samples have been taken 6 days after emergence and 22 days after emergence. By means of Liquid Chromatography with tandem mass spectrometry (LC-MS-MS) as described above Bitrex amount in leaf tissue has been determined with 4 repetition per Bitrex concentration. Leave samples have been prepared as follows: Leaf material has been harvested, cut in small pieces and put in 3-5 ml ethanol. After 45 min vortexing, centrifuging and taking aliquot of 1 ml for further analysis.

corn seeds = experiment: Phytotoxicity: cold test germination rate (CT) of treated corn seeds; settings: for ΔCT: vs no Bitrex
Experimental: In order to evaluate the phytotoxicity of different corn seed treatments, safety tests were conducted. Germination rates of corn seeds treated with various concentrations of denatonium benzoate (Bitrex®) [in g per unit, where 1 unit is 50.000 seeds] were counted after five days at 25° C. Cold test germination rates (CT) were counted after 7 days at 10° C. and 5 days at 25° C. The treatments were compared to untreated seeds.
KF=germination rates counted after 5 days at 25° C. and CT=cold test germination rates counted after 7 days at 10° C. and 5 days at 25° C.

[4] = corn Amavit, chemical no, Bitrex 0.2 g/u
[5] = corn Amavit, chemical no, Bitrex 0.5 g/u
[6] = corn Amavit, chemical no, Bitrex 1.0 g/u
[7] = corn Amavit, chemical no, Bitrex 2.0 g/u
[8] = corn Amavit, chemical no, Bitrex 5.0 g/u
[9] = corn Amavit, with MaximXL, Bitrex 0.2 g/u
[10] = corn Amavit, with MaximXL, Bitrex 0.5 g/u
[11] = corn Amavit, with MaximXL, Bitrex 1.0 g/u
[12] = corn Amavit, with MaximXL, Bitrex 2.0 g/u
[13] = corn Amavit, with MaximXL, Bitrex 5.0 g/u
[14] = corn Amavit, with RedigoM, Bitrex 0.2 g/u
[15] = corn Amavit, with RedigoM, Bitrex 0.5 g/u
[16] = corn Amavit, with RedigoM, Bitrex 1.0 g/u
[17] = corn Amavit, with RedigoM, Bitrex 2.0 g/u
[18] = corn Amavit, with RedigoM, Bitrex 5.0 g/u
[19] = corn KXB6432, chemical no, Bitrex 0.2 g/u
[20] = corn KXB6432, chemical no, Bitrex 0.5 g/u
[21] = corn KXB6432, chemical no, Bitrex 1.0 g/u
[22] = corn KXB6432, chemical no, Bitrex 2.0 g/u
[23] = corn KXB6432, chemical no, Bitrex 5.0 g/u
[24] = corn KXB6432, with MaximXL, Bitrex 0.2 g/u
[25] = corn KXB6432, with MaximXL, Bitrex 0.5 g/u
[26] = corn KXB6432, with MaximXL, Bitrex 1.0 g/u
[27] = corn KXB6432, with MaximXL, Bitrex 2.0 g/u
[28] = corn KXB6432, with MaximXL, Bitrex 5.0 g/u
[29] = corn KXB6432, with RedigoM, Bitrex 0.2 g/u
[30] = corn KXB6432, with RedigoM, Bitrex 0.5 g/u
[31] = corn KXB6432, with RedigoM, Bitrex 1.0 g/u
[32] = corn KXB6432, with RedigoM, Bitrex 2.0 g/u
[33] = corn KXB6432, with RedigoM, Bitrex 5.0 g/u
[34] = ø of varieties and chemicals, Bitrex 0.2 g/u
[35] = ø of varieties and chemicals, Bitrex 0.5 g/u
[36] = ø of varieties and chemicals, Bitrex 1.0 g/u
[37] = ø of varieties and chemicals, Bitrex 2.0 g/u
[38] = ø of varieties and chemicals, Bitrex 5.0 g/u
[39] = ø of varieties, chemical no, Bitrex 0.2 g/u
[40] = ø of varieties, chemical no, Bitrex 0.5 g/u
[41] = ø of varieties, chemical no, Bitrex 1.0 g/u
[42] = ø of varieties, chemical no, Bitrex 2.0 g/u
[43] = ø of varieties, chemical no, Bitrex 5.0 g/u
[44] = ø of varieties, with MaximXL, Bitrex 0.2 g/u
[45] = ø of varieties, with MaximXL, Bitrex 0.5 g/u
[46] = ø of varieties, with MaximXL, Bitrex 1.0 g/u
[47] = ø of varieties, with MaximXL, Bitrex 2.0 g/u
[48] = ø of varieties, with MaximXL, Bitrex 5.0 g/u
[49] = ø of varieties, with RedigoM, Bitrex 0.2 g/u
[50] = ø of varieties, with RedigoM, Bitrex 0.5 g/u
[51] = ø of varieties, with RedigoM, Bitrex 1.0 g/u
[52] = ø of varieties, with RedigoM, Bitrex 2.0 g/u
[53] = ø of varieties, with RedigoM, Bitrex 5.0 g/u

## CC[N+](CC)(CC(=O)Nc1c(C)cccc1C)Cc1ccccc1.O=C([O-])c1ccccc1 [Bitrex, N-Benzyl-2-(2,6-dimethylanilino)-N, N-diethyl-2-oxoethan-1-aminium benzoate]
[1]; 5 g Bitrex per 50,000 seeds
  DAMINS insect damage, stage V5: 6.8 plants per row and 5.62 % per row
[1]; 10 g Bitrex per 50,000 seeds
  DAMINS insect damage, stage V5: 7.3 plants per row and 6.07 % per row
[1]; 20 g Bitrex per 50,000 seeds
  DAMINS insect damage, stage V5: 5.8 plants per row and 4.79 % per row
[2]; hybrid rye
  concentration of Bitrex in kernels: up to 460,000 ng/g
[2]; hybrid rye seedlings 3 weeks after sowing, root, application B: KintoPlus 150 ml/100 kg seeds and Bitrex 150 g/100 kg seeds
  Mean Bitrex concentration: 21169.7 ng/g and 25378.0 ng/g and 18336.0 ng/g and 15826.3 ng/g
[2]; hybrid rye, kernel, application A: KintoPlus 150 ml/100 kg seeds and Bitrex 75 g/100 kg seeds
  Mean Bitrex concentration: 460473.8 ng/g
[3]; oilseed rape leaf, Bitrex 0.15 g/unit, repetitions 1-4
  Bitrex concentation 22 days after emergence: 11.03 ng/g and 10.65 ng/g and 5.58 ng/g and 7.75 ng/g
[3]; oilseed rape leaf, Bitrex 7.5 g/unit, repetitions 1-4
  Bitrex concentation 6 days after emergence: 354.65 ng/g and 194.60 ng/g and 266.85 ng/g and 251.41 ng/g
[3]; oilseed rape, all applications 0.15-75 g/unit
  Bitrex in leaf tissue after 22 days: still detectable but at a low amount
Corn seeds; [4]
  CT cold test germination rate, 7 days at 10° C. and 5 days at 25° C.: 91.5%
  ΔCT: 6.0%
Corn seeds; [5]
  CT cold test germination rate, 7 days at 10° C. and 5 days at 25° C.: 89.0%
  ΔCT: 3.5%
Corn seeds; [6]
  CT cold test germination rate, 7 days at 10° C. and 5 days at 25° C.: 95.5%
  ΔCT: 10.0%
Corn seeds; [7]
  CT cold test germination rate, 7 days at 10° C. and 5 days at 25° C.: 93.0%
  ΔCT: 7.5%
Corn seeds; [8]
  CT cold test germination rate, 7 days at 10° C. and 5 days at 25° C.: 96.5%
  ΔCT: 11.0%
Corn seeds; [9]
  CT cold test germination rate, 7 days at 10° C. and 5 days at 25° C.: 98.0%
  ΔCT: −2.0%
Corn seeds; [10]
  CT cold test germination rate, 7 days at 10° C. and 5 days at 25° C.: 98.0%
  ΔCT: −2.0%
Corn seeds; [11]
  CT cold test germination rate, 7 days at 10° C. and 5 days at 25° C.: 97.0%
  ΔCT: −3.0%
Corn seeds; [12]
  CT cold test germination rate, 7 days at 10° C. and 5 days at 25° C.: 99.0%
  ΔCT: −1.0%
Corn seeds; [13]
  CT cold test germination rate, 7 days at 10° C. and 5 days at 25° C.: 99.0%
  ΔCT: −1.0%
Corn seeds; [14]
  CT cold test germination rate, 7 days at 10° C. and 5 days at 25° C.: 97.5%
  ΔCT: 0.5%
Corn seeds; [15]
  CT cold test germination rate, 7 days at 10° C. and 5 days at 25° C.: 99.0%
  ΔCT: 2.0%
Corn seeds; [16]
  CT cold test germination rate, 7 days at 10° C. and 5 days at 25° C.: 99.0%
  ΔCT: 2.0%
Corn seeds; [17]
  CT cold test germination rate, 7 days at 10° C. and 5 days at 25° C.: 95.5%
  ΔCT: −1.5%
Corn seeds; [18]
  CT cold test germination rate, 7 days at 10° C. and 5 days at 25° C.: 96.5%
  ΔCT: −0.5%
Corn seeds; [19]
  CT cold test germination rate, 7 days at 10° C. and 5 days at 25° C.: 98.0%
  ΔCT: 5.5%
Corn seeds; [20]
  CT cold test germination rate, 7 days at 10° C. and 5 days at 25° C.: 97.5%
  ΔCT: 5.0%
Corn seeds; [21]
  CT cold test germination rate, 7 days at 10° C. and 5 days at 25° C.: 97.0%
  ΔCT: 4.5%
Corn seeds; [22]
  CT cold test germination rate, 7 days at 10° C. and 5 days at 25° C.: 90.5%
  ΔCT: −2.0%
Corn seeds; [23]
  CT cold test germination rate, 7 days at 10° C. and 5 days at 25° C.: 90.5%
  ΔCT: −2.0%
Corn seeds; [24]
  CT cold test germination rate, 7 days at 10° C. and 5 days at 25° C.: 100.0%
  ΔCT: 1.0%
Corn seeds; [25]
  CT cold test germination rate, 7 days at 10° C. and 5 days at 25° C.: 99.5%
  ΔCT: 0.5%
Corn seeds; [26]
  CT cold test germination rate, 7 days at 10° C. and 5 days at 25° C.: 98.0%
  ΔCT: −1.0%
Corn seeds; [27]
  CT cold test germination rate, 7 days at 10° C. and 5 days at 25° C.: 96.5%
  ΔCT: −2.5%
Corn seeds; [28]
  CT cold test germination rate, 7 days at 10° C. and 5 days at 25° C.: 99.0%
  ΔCT: 0.0%
Corn seeds; [29]
  CT cold test germination rate, 7 days at 10° C. and 5 days at 25° C.: 97.0%
  ΔCT: −0.5%
Corn seeds; [30]
  CT cold test germination rate, 7 days at 10° C. and 5 days at 25° C.: 96.5%
  ΔCT: −1.0%
Corn seeds; [31]
  CT cold test germination rate, 7 days at 10° C. and 5 days at 25° C.: 99.5%
  ΔCT: 2.0%
Corn seeds; [32]
  CT cold test germination rate, 7 days at 10° C. and 5 days at 25° C.: 98.5%
  ΔCT: 1.0%
Corn seeds; [33]
  CT cold test germination rate, 7 days at 10° C. and 5 days at 25° C.: 96.5%
  ΔCT: −1.0%
Corn seeds; [34]
  ΔCT: 1.8%
  CT cold test germination rate, 7 days at 10° C. and 5 days at 25° C.: 97.0%
Corn seeds; [35]
  ΔCT: 1.3%
  CT cold test germination rate, 7 days at 10° C. and 5 days at 25° C.: 96.6%
Corn seeds; [36]
  ΔCT: 2.4%
  CT cold test germination rate, 7 days at 10° C. and 5 days at 25° C.: 97.7%
Corn seeds; [37]
  ΔCT: 0.3%
  CT cold test germination rate, 7 days at 10° C. and 5 days at 25° C.: 95.5%
Corn seeds; [38]
  ΔCT: 1.1%
  CT cold test germination rate, 7 days at 10° C. and 5 days at 25° C.: 96.3%
Corn seeds; [39]
  ΔCT: 5.8%
  CT cold test germination rate, 7 days at 10° C. and 5 days at 25° C.: 94.8%
Corn seeds; [40]
  ΔCT: 4.3%
  CT cold test germination rate, 7 days at 10° C. and 5 days at 25° C.: 93.3%
Corn seeds; [41]
  ΔCT: 7.2%
  CT cold test germination rate, 7 days at 10° C. and 5 days at 25° C.: 96.3%
Corn seeds; [42]
  ΔCT: 2.8%
  CT cold test germination rate, 7 days at 10° C. and 5 days at 25° C.: 91.8%
Corn seeds; [43]
  ΔCT: 4.5%
  CT cold test germination rate, 7 days at 10° C. and 5 days at 25° C.: 93.5%
Corn seeds; [44]
  ΔCT: −0.5%
  CT cold test germination rate, 7 days at 10° C. and 5 days at 25° C.: 99.0%
Corn seeds; [45]
  ΔCT: −0.7%
  CT cold test germination rate, 7 days at 10° C. and 5 days at 25° C.: 98.8%
Corn seeds; [46]
  ΔCT: −2.0%
  CT cold test germination rate, 7 days at 10° C. and 5 days at 25° C.: 97.5%
Corn seeds; [47]
  ΔCT: −1.8%
  CT cold test germination rate, 7 days at 10° C. and 5 days at 25° C.: 97.8%
Corn seeds; [48]
  ΔCT: −0.5%
  CT cold test germination rate, 7 days at 10° C. and 5 days at 25° C.: 99.0%
Corn seeds; [49]
  ΔCT: 0.0%
  CT cold test germination rate, 7 days at 10° C. and 5 days at 25° C.: 97.3%
Corn seeds; [50]
  ΔCT: 0.5%
  CT cold test germination rate, 7 days at 10° C. and 5 days at 25° C.: 97.8%
Corn seeds; [51]
  ΔCT: 2.0%
  CT cold test germination rate, 7 days at 10° C. and 5 days at 25° C.: 99.3%
Corn seeds; [52]
  ΔCT: −0.2%
  CT cold test germination rate, 7 days at 10° C. and 5 days at 25° C.: 97.0%
Corn seeds; [53]
  ΔCT: −0.7%
  CT cold test germination rate, 7 days at 10° C. and 5 days at 25° C.: 96.5%
